# Values quoted from earlier work, collected in US20250215053A1, “LYSINE RICH CELL-PENETRATING PEPTIDES” (OXFORD UNIVERSITY INNOVATION LIMITED, priority 2022, published 2025).
# Tested on: dystrophin
# Conditions: in vivo
substance,measurement,value
eteplirsen,dystrophin restoration,approximately 1 % of normal dystrophin levels
